What all share (format): cell-based, human
The test system of one series is SOD. In words: SOD activity (rate of cytochrome c reduction) in BET1A cells. Here is the method:
Cell Culture. BET1A, a human bronchial epithelial cell line, was cultured in serum-free Lechner and […] medium (LHC-8, Biofluids, Inc., Rockville, Md.) with additives 0.33 nM retinoic acid, […] epinephrine and the antibiotic combination, 1% penicillin/streptomycin, on plates pre-coated with coating media containing 29 μg/ml collagen (Vitrogen: Collagen Corp., Palo Alto, Calif.), 10 μg/ml bovine serum albumin (Biofluids, Rockville, Md.), and 10 μg/ml fibronectin (Calbiochem, La Jolla, Calif.) for 5 min. HAEC obtained by bronchial brushing were cultured in serum-free Lechner and […] media (LHC8) on plates pre-coated with coating media ([…], et al., Cancer Res 1988, 48:1904-1909). […] T. Baker Inc, […], et al., FASEB J 2001, 15:70-78), or hydrogen peroxide (Sigma, St. Louis, Mo.) in a dose and time dependent manner. 293T cells, a clone of 293 (human embryonic kidney fibroblast cells) that expresses the Simian virus 40 large-T antigen, were maintained in DMEM (Invitrogen) with 10% FCS. Antioxidant assays. Bronchial epithelial cells (BET1A) exposed to 5 µM 2-ME for 30 min to 24 h, or serum of asthmatic individuals, were assayed for glutathione (GSH), glutathione peroxidase (GPx), catalase, and SOD activity. SOD activity was determined by the rate of reduction of cytochrome c, with one unit (U) of SOD activity defined as the amount of SOD required to inhibit the rate of cytochrome c reduction by 50% (Nebot C, et al., Anal Biochem 1993, 214:442-451). The final reaction volume was 3 ml and included 50 mM potassium phosphate buffer, […] cytochrome c, 0.05 mM xanthine, and a 0.1 mM EDTA solution. Xanthine oxidase (Sigma, St Louis, Mo.) was added at a concentration sufficient to induce a 0.020 per minute change in absorbance at 550 nm. GSH levels were measured as previously described (Comhair S A, et al., Am J Respir Crit Care Med 1999, 159:1824-1829).

Another series concerns SOD protein. The series can be described thus: SOD protein in treated BET1A cells. On the procedure: (§1) Cell Culture. BET1A, a human bronchial epithelial cell line, was cultured in serum-free Lechner and LaVeck medium (LHC-8, Biofluids, Inc., Rockville, Md.) with additives 0.33 nM retinoic acid, […] epinephrine and the antibiotic combination, 1% penicillin/streptomycin, on plates pre-coated with coating media containing 29 μg/ml collagen (Vitrogen: Collagen Corp., Palo Alto, Calif.), 10 μg/ml bovine serum albumin (Biofluids, Rockville, Md.), and 10 μg/ml fibronectin (Calbiochem, La Jolla, Calif.) for 5 min. HAEC obtained by bronchial brushing were cultured in serum-free Lechner and LaVeck media (LHC8) on plates pre-coated with coating media (Reddel R R, et al., Cancer Res 1988, 48:1904-1909). To evaluate oxidant stress and antioxidants in apoptotic events, BET-1A cells were stimulated at 70% confluence with SOD inhibitor, 2-Methoxyoestradiol (2-ME) (Sigma, St Louis, Mo.), or pyrogallol, a superoxide generating compound (J. T. Baker Inc, Phillipsburg, N.J.) (Comhair S A, et al., FASEB J 2001, 15:70-78), or hydrogen peroxide (Sigma, St. Louis, Mo.) in a dose and time dependent manner. 293T cells, a clone of 293 (human embryonic kidney fibroblast cells) that expresses the Simian virus 40 large-T antigen, were maintained in DMEM (Invitrogen) with 10% FCS.
(§2) Western Blot Assay. […] Total protein was measured by using the Coomassie protein assay (Pierce, Rockford, Ill.). […]

The subject of series [1] is BET1A cells. In words: Cell viability by trypan blue exclusion.
Protocol: BET1A, a human bronchial epithelial cell line, was cultured in serum-free Lechner and LaVeck medium (LHC-8, Biofluids, Inc., Rockville, Md.) with additives 0.33 nM retinoic acid, 2.75 mM epinephrine and the antibiotic combination, 1% penicillin/streptomycin, on plates pre-coated with coating media containing 29 μg/ml collagen (Vitrogen: Collagen Corp., Palo Alto, Calif.), 10 μg/ml bovine serum albumin (Biofluids, Rockville, Md.), and 10 μg/ml fibronectin (Calbiochem, La Jolla, Calif.) for 5 min.
The test system of series [2] is BET1A cells. In words: Apoptosis detection by Annexin V binding. On the procedure: Cell Culture. BET1A, a human bronchial epithelial cell line, was cultured in serum-free Lechner and […] medium (LHC-8, Biofluids, Inc., Rockville, Md.) with additives 0.33 nM retinoic acid, […] epinephrine and the antibiotic combination, 1% penicillin/streptomycin, on plates pre-coated with coating media containing 29 μg/ml collagen (Vitrogen: Collagen Corp., Palo Alto, Calif.), 10 μg/ml bovine serum albumin (Biofluids, Rockville, Md.), and 10 μg/ml fibronectin (Calbiochem, La Jolla, Calif.) for 5 min. HAEC obtained by bronchial brushing were cultured in serum-free Lechner and […] media (LHC8) on plates pre-coated with coating media ([…], et al., Cancer Res 1988, 48:1904-1909). […] T. Baker Inc, […], et al., FASEB J 2001, 15:70-78), or hydrogen peroxide (Sigma, St. Louis, Mo.) in a dose and time dependent manner. 293T cells, a clone of 293 (human embryonic kidney fibroblast cells) that expresses the Simian virus 40 large-T antigen, were maintained in DMEM (Invitrogen) with 10% FCS. Cell Viability and Apoptosis detection. Cell viability was assessed by bright-field microscopy using a trypan blue dye (0.4%) exclusion method. The mean survival was determined by examining four different low power fields. Annexin V binding was used to detect apoptotic cells as previously described (Trautmann A, et al., J Allergy Clin Immunol 2001, 108:839-846). Briefly, cells were incubated with 1.0 μg/mL annexin V-FITC and 2.5 μg/mL propidium iodide (BD Biosciences, Palo Alto, Calif.). The stained cells were analyzed with a FACScan (Becton Dickinson, San Jose, Calif.), using an argon ion laser at 488 nm and emission recorded at 520 nm with band pass and short pass filters. Gating was done on the forward angle and right angle light scatter only to exclude debris and cell clumps. […] The RFI was calculated using the ratio of the linearized mean fluorescence of the cell populations, as provided by the CellQuest software (Becton Dickinson, San Jose, Calif.). Apoptotic cells are identified as the Annexin positive-PI negative fraction.

The test system of the next series is caspase-3. In words: Caspase-3-like enzyme activity in BET1A cells. To be noted: time dependent. Here is the method:
as §1, with “293T cells, a clone of 293 (human embryonic kidney fibroblast cells) that expresses the Simian virus 40 large-T antigen, were maintained in DMEM (Invitrogen) with 10% FCS.” left out
Caspase-3-like enzyme activity. Caspase-3-like activity was measured by a […] assay (BD PharMingen, San Diego, Calif.). […] AMC fluorescence is quantified by UV spectrofluorometry with an excitation wavelength of 380 nm and an emission wavelength range of 420-460 nm.

Another series deals with BAX. In words: BAX levels by Western blot. The following applies: BET1A cells. Here is the method: as §1, §2
Background: Immunoblotting shows a protein as a band on a membrane.

The subject of the next series is GSH. In words: Intracellular GSH in BET1A cells. On the procedure: Antioxidant assays. Bronchial epithelial cells (BET1A) exposed to 5 µM 2-ME for 30 min to 24 h, or serum of asthmatic individuals, were assayed for glutathione (GSH), glutathione peroxidase (GPx), catalase, and SOD activity. SOD activity was determined by the rate of reduction of cytochrome c, with one unit (U) of SOD activity defined as the amount of SOD required to inhibit the rate of cytochrome c reduction by 50% (Nebot C, et al., Anal Biochem 1993, 214:442-451). The final reaction volume was 3 ml and included 50 mM potassium phosphate buffer, […] cytochrome c, 0.05 mM xanthine, and a 0.1 mM EDTA solution. Xanthine oxidase (Sigma, St Louis, Mo.) was added at a concentration sufficient to induce a 0.020 per minute change in absorbance at 550 nm. GSH levels were measured as previously described (Comhair S A, et al., Am J Respir Crit Care Med 1999, 159:1824-1829).

In a further series the test system is BET1A-cells. The series can be described thus: Tyrosine nitrated proteins in BET1A cells (anti-nitrotyrosine Western, 2D gel). On the procedure: Western Blot Assay. Airway epithelial cells freshly obtained by bronchoscopic brushing from asthmatics and healthy controls, or BET1A cells, were suspended in buffer (3 mM dithiothreitol, 5 μg/ml aprotinin, 1 μg/ml leupeptin and pepstatin A, 0.1 mM PMSF, 1% NP40 and 40 mM Hepes pH 7.5) and cell lysate prepared by three cycles of freeze/thaw. Total protein was measured by using the Coomassie protein assay (Pierce, Rockford, Ill.). Whole cell lysate protein was denatured and reduced by treatment with buffer containing 0.05 M Tris (pH 6.8), 1% sodium dodecyl sulfate (SDS), 10% glycerol, 0.00125% bromphenol blue and 0.5% β mercaptoethanol for 3 minutes at 95° C. Total protein was separated by electrophoresis on a 10% SDS-polyacrylamide gel, and then electrophoretically transferred onto nitrocellulose (NitroBind EP4HY315F5, Fisher Scientific, Pittsburgh, Pa.) or Polyvinylidene Difluoride membrane (Pierce, Rockford, Ill.) for 1 h at 4° C. Membranes were incubated with blocking buffer [5% non fat dry milk in TBS (20 mM Tris-HCl (pH 7.0) and 137 mM NaCl) with 0.1% Tween] for 1 h at room temperature to block nonspecific binding and then probed with a primary antibody in blocking buffer overnight at 4° C. […]
Two dimentional gel electrophoresis. […] Total Protein was measured by using Coomassie protein assay (Pierce, Rockfod, Ill.). […]

In the next series the test system is MnSOD. In words: MnSOD silencing by siRNA in 293T cells, caspase-3 activity. To be noted: 48 h after transfection. Here is the method:
Caspase-3-like enzyme activity. Caspase-3-like activity was measured by a […] assay (BD PharMingen, San Diego, Calif.). This assay measures active caspase-3 binding to fluorogenic Ac-DEVD-AMC substrate and its cleavage to release the fluorescent AMC. AMC fluorescence is quantified by UV spectrofluorometry with an excitation wavelength of 380 nm and an emission wavelength range of 420-460 nm.
Transfection of siRNA MnSOD. MnSOD siRNA was synthesized by Ambion (Austin, Tex.). The sense and antisense MnSOD siRNA were 5-GGAACAACAGGCCUUAUUCtt-3 (sense) and 5-GAAUAAGGCCUGUUGUUCCtt-3 (antisense). Silencer™ Negative control #1 siRNA (siRNA control) (Ambion, Austin Tex.) was used as a control. 293T-cells, at 60% confluence in […] plates, were transfected in serum-free medium (DMEM, Invitrogen, Carlsbad Calif.) by using lipofectamine reagent (Invitrogen, Carlsbad Calif.) according to the manufacturer's instructions. For the silencing experiments, cells were transfected with […] of MnSOD siRNA or with 50 nM of Silencer™ Negative Control #1 siRNA. 48 h after transfection, cells were washed, trypsinized and harvested for evaluation of mRNA, protein expression, and caspase-3 activity.

`COc1cc2c(cc1O)CC[C@@H]1[C@@H]2CC[C@]2(C)[C@@H](O)CC[C@@H]12` [2-ME, 2-Methoxyoestradiol]: the “blocked the activity of SOD” value in the series with SOD (5 μM, 3 h, p=0.004) is recorded as “up to 86%”. In addition, the SOD protein result in the series with SOD protein is “did not cause a decrease of SOD protein”. In addition, the “cell viability (trypan blue)” value in the series with BET1A cells [1] is recorded as “decrease in cell viability”. In the series on BET1A cells [2], the “apoptotic cells (Annexin V staining)” value was “increase in apoptotic cells as early as 17 h”. The caspase-3 activity entry in the series on caspase-3 is “significantly increased”. In addition, in the series on BAX, the BAX levels result is “upregulation of BAX levels”. The “intracellular GSH” value in the series on GSH was “rapid depletion of intracellular GSH”. The tyrosine nitrated proteins result in the series with BET1A-cells is “increase in tyrosine nitrated proteins”.

With `OO` [H202, hydrogen peroxide], the SOD activity result with SOD was “loss of SOD activity”. The apoptosis result with BET1A cells [2] was “increased apoptosis”.

As to `Oc1cccc(O)c1O` [pyrogallol], the SOD activity entry in the series with SOD was “loss of SOD activity”. Besides, in the series on BET1A cells [2], the apoptosis result is listed as “increased apoptosis”.

For the compound “MnSOD siRNA: siRNA, sense 5-GGAACAACAGGCCUUAUUCtt-3, antisense 5-GAAUAAGGCCUGUUGUUCCtt-3, synthesized by Ambion (sense GGAACAACAGGCCUUAUUCTT; antisense GAAUAAGGCCUGUUGUUCCTT; 3' tt overhangs, chemistry not given here, further chemistry not given here)”, the caspase-3 activation result with MnSOD is recorded as “caspase-3 activation”.

For the origin of these results see US20110165594A1, “SYSTEMIC MARKERS FOR ASTHMA AND ANALOGOUS DISEASES” (THE CLEVELAND CLINIC FOUNDATION, priority 2005, published 2011).
